Tests used:
[1] = tested on: Mycobacterium tuberculosis; test: MMV: Screen against Mtb, single point, non replicating, at 25uM; assay type: functional
[2] = tested on: Mycobacterium tuberculosis; test: MMV: Screen against Mtb, single point, replicating, at 25uM; assay type: functional

Row | SMILES | inhibition at 25 µM [1] [%] | inhibition at 25 µM [2] [%]
1 | COc1ccc2c(c1)C1(Nc3ccccc3-c3nc4ccccc4n31)C(=O)N2 (stereo not given) | 10.8 | 0.517
2 | Cc1cc(N2CCN(C3CCCC3)CC2)n2c(nc3ccccc32)c1C#N | 11.5 | 7.81
3 | CCCCCCOC(=O)C1=C(C)NC(=O)NC1c1ccccc1F (stereo not given) | 6.8 | 9.78
4 | COc1ccc(C2N(C)c3ccccc3N2C)cc1 | -0.36 | -1.76
5 | CCCN(CCC)CC(O)COc1ccccc1C(=O)Nc1ccccc1 (stereo not given) | 17.1 | 20.9
6 | CCCn1c(=N)c(C(=O)NC2CCCCC2)cc2c(=O)n3cccc(C)c3nc21 | 2.38 | -4.62
7 | CC(Oc1ccc(NC(=O)c2cccs2)cc1)C(=O)c1ccc(Cl)cc1 (stereo not given) | -0.638 | 2.74
8 | CCCCNCC(O)(c1ccc(Cl)cc1)c1ccc(Cl)cc1 | 9.41 | 16.9
9 | OC(CNC1CCCC1)Cn1c2ccccc2c2ccccc21 (stereo not given) | 13.1 | 27.5
10 | CCC(c1ccccc1)c1nn2c(-c3cccs3)nnc2s1 (stereo not given) | 20.8 | 19.3
11 | Cn1c(=O)c2cc(C(=O)NCCCN3CCCCCC3)sc2c2ccccc21 | 14.6 | 19.5
12 | CCOc1ccc(CCNC(=O)c2cccs2)cc1OCC | 15 | 30
13 | CC(=O)c1sc(NC(=O)Nc2ccc(C)cc2C)nc1C | 6.64 | 10.3
14 | O=C(CCc1ccco1)NC1CCN(CC2(c3ccc(Cl)cc3)CCC2)CC1 | 20.8 | 31.6
15 | COc1ccc(C2C(C(=O)Nc3cccc(OC)c3)c3ccccc3C(=O)N2C2CCCCC2)cc1 (stereo not given) | 29 | 19.5
16 | CC(C)=CCN1CCC(C(=O)Nc2ccc(-c3nc4ccccc4[nH]3)cc2)CC1 | 17.3 | 12.5
17 | Cc1cc(NC(=O)c2cccc(C(F)(F)F)c2)n(-c2nc(-c3ccc4c(c3)OCO4)cs2)n1 | 3.48 | 5.83
18 | CCOc1c(Cl)cc(CNCC(O)c2ccccc2)cc1OC (stereo not given) | 6.97 | 11.9
19 | COc1ccc(N2CCN(C(CNC(=O)CC(C)(C)C)c3ccc4c(c3)OCO4)CC2)cc1 (stereo not given) | -8.45 | 0.0784
20 | CCOC(=O)c1cnc2c(C)cc(C)cc2c1Nc1ccc(OC)c(OC)c1 | 3.83 | 4.46
21 | O=C(Nc1ccc(-c2nc3cc4ccccc4cc3[nH]2)cc1)c1cccc(Br)c1 | 37 | 8.07
22 | COc1ccc(Br)cc1C1Nc2ccc3ccccc3c2C2=C1C(=O)CC(c1ccccc1)C2 (stereo not given) | 20.9 | 16.2
23 | CCN(Cc1ccccc1)C1CCN(Cc2cc(Br)ccc2O)CC1 | 12.7 | 16.8
24 | O=C(Nc1ccc(-c2nc3ccccc3[nH]2)cc1)c1ccc(Cl)c(Cl)c1 | 26.5 | 9.8
25 | COc1cc2c(cc1OC)C1=NNC(=O)C1=NC(C)(C)C2 | 26.7 | 11.3
26 | CCN(CC)CCNc1ncnc2c1[nH]c1ccc(Cl)cc12 | 18.1 | 15.4
27 | CN1CCN(c2c3c(c(C#N)c4nc5ccccc5n24)CCC3)CC1 | 4.53 | 7.2

Row | SMILES | inhibition at 25 µM [1] [%] | inhibition at 25 µM [2] [%]
28 | CCOC(=O)c1ccc2nc(-c3ccccc3)cc(O)c2c1 | 15.5 | 14.6
29 | CCc1c(C)c(=N)c2ccccc2n1C | 2.08 | 4.16
30 | Cc1ccc(-c2cc3c(SCC(=O)Nc4cc(C(F)(F)F)ccc4Cl)nccn3n2)cc1 | 8.19 | 3.25
31 | CCOC(=O)c1c(C)n(-c2ccc(Cl)cc2)c2ccc(OC(=O)C=Cc3ccccc3)cc12 | 18.8 | 25.1
32 | CCOc1cc(CNC(C)C(O)c2ccccc2)cc(Cl)c1OCC (stereo not given) | 9.76 | 18.6
33 | Oc1ccc(Br)cc1CN1CCN(Cc2ccc(Cl)cc2)CC1 | 17.6 | 19.7
34 | Cc1ccc2nc(C)cc(Nc3cccc(C(F)(F)F)c3)c2c1 | 10.4 | 39
35 | CNCCCNc1ccnc2cc(Cl)ccc12 | 5.05 | 8.11
36 | CCN1CCN(Cc2ccc(NC(=O)c3cc4ccc5cccnc5c4[nH]3)cc2)CC1 | 3.13 | 18.3
37 | COc1ccc2sc(N(Cc3cccnc3)C(=O)c3ccc(C#N)cc3)nc2c1 | 5.22 | 15
38 | COc1ccc(C(=O)C(CCC(CNC(C)(C)C)C(=O)c2ccc(OC)cc2)CNC(C)(C)C)cc1 (stereo not given) | 21 | 10.9
39 | CCOc1ccc2c(c1)CN(Cc1ccc(Cl)cc1)CO2 | 20.5 | 16.1
40 | COc1cc(-c2nc(-c3ccccc3)c(-c3ccccc3)[nH]2)cc(OC)c1O | 18 | 17
41 | COc1ccc(C(=O)Nc2nonc2-c2ccc(OC)c(OC)c2)cc1Cl | 5.57 | 3.86
42 | O=C(NC1CCN(Cc2ccccc2)CC1)c1cc(C(=O)NC2CCN(Cc3ccccc3)CC2)cc(C(=O)NC2CCN(Cc3ccccc3)CC2)c1 | 3.44 | 7.92
43 | Oc1ccccc1CN1CCC2(CCCN(Cc3ccccc3F)C2)C1 (stereo not given) | 9.59 | 50.6
44 | Cc1ccc(F)cc1NC(=O)c1cc(Cl)ccc1Nc1ccccc1 | 28.5 | 6.66
45 | Oc1ccccc1CN1CCN(C(c2ccccc2)c2ccccc2)CC1 | 28.8 | 33.3
46 | CCn1c(SCC(=O)Nc2cc(C(F)(F)F)ccc2Cl)nc2ccccc2c1=O | 16 | 2.95
47 | CN(N=O)C1=C(NC2CCCCC2)C(=O)c2ccccc2C1=O | 7.53 | -2.12
48 | COc1ccc2nc(C)cc(Nc3ccccc3O)c2c1 | 7.14 | 13.6
49 | FC(F)(F)c1ccc(Nc2nnnc3ccccc23)cc1 | 31.2 | 44.2
50 | CCN1CCN(c2c(C(=O)c3ccccc3)cnc3cc(OC)c(OC)cc23)CC1 | 1.14 | 5.25
51 | COc1ccc(C2c3ccc4ccccc4c3Oc3ncn(CCCn4ccnc4)c(=N)c32)cc1OC (stereo not given) | 11.1 | 46.8
52 | COc1ccc(CNC(=O)c2cc3c(=O)n4ccccc4nc3n(CCc3ccccc3)c2=N)cc1 | 6.82 | 20.3
53 | CCCC(c1nnnn1C1CCCCC1)N1CCN(C(=O)c2ccco2)CC1 (stereo not given) | 5.57 | 20.4
54 | CCOc1cc2c(cc1OCC)C(c1cc(Cl)c(O)c(OCC)c1)NCC2 (stereo not given) | -14 | -12.2

Row | SMILES | inhibition at 25 µM [1] [%] | inhibition at 25 µM [2] [%]
55 | CCOc1ccccc1NC(=O)CN1CCN(C(=O)c2ccco2)CC1 | -0.186 | 23.1
56 | Oc1c(CN2CCN(c3ccccc3F)CC2)cc(Br)c2cccnc12 | 30.2 | 21.8
57 | CN(C)CCCNCc1ccc(-c2ccc(F)c(Cl)c2)o1 | 1.91 | 23.9
58 | COc1ccc(NC(=O)C2c3ccccc3C(=O)N(CC(C)C)C2c2cccs2)cc1Cl (stereo not given) | 22.2 | -1.46
59 | Nc1ccn([C@@H]2O[C@H](CO)[C@@H](O)[C@H]2O)c(=O)n1 [CYTIDINE] | 14.6 | -3.06
60 | Cc1cc(Nc2ccc(C)c(Cl)c2)n2nc(C(F)(F)F)nc2n1 | 4.53 | 19.5
61 | Cc1ccc(-c2cc3c(nn2)-c2ccccc2C3=O)cc1 | 17.3 | 41.8
62 | CC1CC2=C(CC1CNCCCN(C)C)C(C)(C)CCC2 (stereo not given) | -0.993 | 42.2
63 | O=C(NC1CCCCC1)C(c1cccs1)N(CCc1ccccc1)C(=O)c1ccco1 (stereo not given) | 2.2 | 22.2
64 | Oc1c(C(Nc2ccccn2)c2cccc(Oc3ccccc3)c2)ccc2cccnc12 (stereo not given) | 11.8 | -15.4
65 | COc1ccc(C)c2sc(N(Cc3cccnc3)C(=O)c3ccc(C#N)cc3)nc12 | 23.9 | 9.48
66 | CC(=O)Nc1nnc(SCc2c(C)cc(C(C)(C)C)cc2C)s1 | 19.7 | 3.55
67 | COc1ccc(C(=O)NC(c2ccc(Cl)cc2Cl)c2cc(Cl)c3cccnc3c2O)cc1 (stereo not given) | -4.19 | 3.06
68 | CC(C)(C)c1ccc(C(=O)Nc2c3c(nn2-c2cccc(Cl)c2)CSC3)cc1 | -4.72 | -1.02
69 | c1ccc2cc3c(Nc4ccc(N5CCOCC5)cc4)ccnc3cc2c1 | 0.164 | 19.5
70 | O=C(NCC(c1ccsc1)N1CCCCCC1)c1ccc(C(F)(F)F)cc1 (stereo not given) | 10.5 | 8.41
71 | Cc1sc(NC(=O)c2ccco2)c(C(c2cccnc2)N2CCC(Cc3ccccc3)CC2)c1C (stereo not given) | -1.7 | 21.7
72 | Cc1cc(NC(=O)C2c3ccccc3C(=O)N(CC(C)C)C2c2cccs2)no1 (stereo not given) | 13.1 | 12.2
73 | O=C(Nc1ccc(Cl)cc1)N1CCN(c2ccc3nncn3n2)CC1 | -3.33 | 12.8
74 | Cc1ccc(-c2cc(C(=O)Nc3ccc(S(=O)(=O)N4CCCCC4)cc3)[nH]n2)c(O)c1 | 9.41 | 11.4
75 | COc1ccccc1NC1=C(N2CCCCC2)C(=O)c2ccccc2C1=O | 24.8 | 13.3
76 | Cc1ccc(C)c(Cn2c(N3CCC(C(=O)NCc4cccs4)CC3)nc3ccccc32)c1 | 10.4 | 22
77 | COc1ccc(C(=O)NC(c2ccccc2Cl)c2cc(Cl)c3cccnc3c2O)cc1 (stereo not given) | 5.04 | 10.6
78 | CCCc1cc(O)c2c3c(c(=O)oc2c1)CN(C)CC3 | 14.1 | 16
79 | c1ccc2c(NCCc3c[nH]c4ccccc34)c3ccccc3nc2c1 | 17.8 | 47.1
80 | CN(C)CCNc1cc(-c2ccccc2)nc2ccccc12 | 6.45 | 6.89
